How the values were obtained:
[1] = molecular target: FGFR2(N549H)(h) (Homo sapiens (Human), UniProt P21802, N549H); test: Kinase inhibition assay (KinaseProfiler, 33P-ATP); format: biochemical; conditions: read-out: The percentage of the remaining active protein
[2] = molecular target: DNA-PK(h) (Homo sapiens (Human), UniProt P78527); test: Kinase inhibition assay (KinaseProfiler, 33P-ATP); format: biochemical; conditions: read-out: The percentage of the remaining active protein
[3] = molecular target: NIM1(h) (Homo sapiens (Human), UniProt Q8IY84); test: Kinase inhibition assay (KinaseProfiler, 33P-ATP); format: biochemical; conditions: read-out: The percentage of the remaining active protein
[4] = tested on: ZR-75-1; test: Cell proliferation inhibition assay (MTT); format: cell-based; conditions: Homo sapiens, 72 hours, read-out: Proliferation inhibitory activity IC50
Experimental: (§1) The cells were seeded in 96-well plates with 200 μL of cell suspension per well and incubated overnight in a cell culture medium with a cell concentration of 1 2×10^4 cells/mL. The next day, the supernatant was discarded (the suspension cell was centrifuged before it) and the cells were treated with gradient concentrations of the test compound, respectively. […] After 72 hours, add 20 μL of MTT reagent at a concentration of 5 mg/mL per well. After incubation for 2-4 h, the supernatant was discarded and 150 μL of DMSO was added to each well. […] Relative cell proliferation inhibition rate=([MUT]-[MUT])×100%/[MUT]. The experiment was repeated at least 3 times. Experimental data were expressed as mean, data statistics using t test, P<0.05 for the difference was statistically significant.

[5] = molecular target: FGFR1(V561M)(h) (Homo sapiens (Human), UniProt P11362, V561M); test: Kinase inhibition assay (KinaseProfiler, 33P-ATP); format: biochemical; conditions: read-out: The percentage of the remaining active protein
[6] = molecular target: PKCβI(h) (Homo sapiens (Human), UniProt P05771); test: Kinase inhibition assay (KinaseProfiler, 33P-ATP); format: biochemical; conditions: read-out: The percentage of the remaining active protein
[7] = molecular target: ULK2(h) (Homo sapiens (Human), UniProt Q8IYT8); test: Kinase inhibition assay (KinaseProfiler, 33P-ATP); format: biochemical; conditions: read-out: The percentage of the remaining active protein
[8] = molecular target: Fes(h) (Homo sapiens (Human), UniProt P07332); test: Kinase inhibition assay (KinaseProfiler, 33P-ATP); format: biochemical; conditions: read-out: The percentage of the remaining active protein
[9] = molecular target: MST2(h) (Homo sapiens (Human), UniProt Q13188); test: Kinase inhibition assay (KinaseProfiler, 33P-ATP); format: biochemical; conditions: read-out: The percentage of the remaining active protein
[10] = molecular target: MAPK2(m) (Mus musculus (Mouse), UniProt P63085); test: Kinase inhibition assay (KinaseProfiler, 33P-ATP); format: biochemical; conditions: read-out: The percentage of the remaining active protein
Chain of MAPK2(m) (P63085 whole entry): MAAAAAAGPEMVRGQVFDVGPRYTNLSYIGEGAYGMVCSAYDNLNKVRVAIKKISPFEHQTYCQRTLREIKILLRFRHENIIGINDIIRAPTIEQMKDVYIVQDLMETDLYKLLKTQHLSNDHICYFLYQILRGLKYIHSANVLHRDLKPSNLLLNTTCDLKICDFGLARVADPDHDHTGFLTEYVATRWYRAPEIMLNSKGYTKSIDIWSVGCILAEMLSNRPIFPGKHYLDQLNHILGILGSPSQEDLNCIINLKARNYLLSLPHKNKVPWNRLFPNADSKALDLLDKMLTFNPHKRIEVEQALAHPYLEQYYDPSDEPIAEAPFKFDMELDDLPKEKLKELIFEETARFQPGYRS

[11] = molecular target: NEK6(h) (Homo sapiens (Human), UniProt Q9HC98); test: Kinase inhibition assay (KinaseProfiler, 33P-ATP); format: biochemical; conditions: read-out: The percentage of the remaining active protein
[12] = molecular target: GRK5(h) (Homo sapiens (Human), UniProt P34947); test: Kinase inhibition assay (KinaseProfiler, 33P-ATP); format: biochemical; conditions: read-out: The percentage of the remaining active protein
Chain of GRK5(h) (P34947 whole entry): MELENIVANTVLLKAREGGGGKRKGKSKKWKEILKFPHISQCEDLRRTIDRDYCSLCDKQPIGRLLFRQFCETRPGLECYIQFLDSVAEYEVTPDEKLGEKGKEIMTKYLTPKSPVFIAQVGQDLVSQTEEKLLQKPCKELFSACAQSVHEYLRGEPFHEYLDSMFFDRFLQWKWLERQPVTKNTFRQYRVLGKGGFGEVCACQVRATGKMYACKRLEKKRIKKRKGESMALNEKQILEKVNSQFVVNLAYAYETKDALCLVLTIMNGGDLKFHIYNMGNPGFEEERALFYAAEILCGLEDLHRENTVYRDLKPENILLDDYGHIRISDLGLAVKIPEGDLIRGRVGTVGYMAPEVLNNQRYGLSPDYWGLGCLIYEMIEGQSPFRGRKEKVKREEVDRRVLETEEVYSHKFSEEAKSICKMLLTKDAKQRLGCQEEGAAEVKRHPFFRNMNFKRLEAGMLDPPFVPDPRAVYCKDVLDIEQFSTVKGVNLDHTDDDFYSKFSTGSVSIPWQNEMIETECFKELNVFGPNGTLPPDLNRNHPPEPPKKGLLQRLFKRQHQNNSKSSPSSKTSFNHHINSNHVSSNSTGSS

[13] = molecular target: Pim-2(h) (Homo sapiens (Human), UniProt Q9P1W9); test: Kinase inhibition assay (KinaseProfiler, 33P-ATP); format: biochemical; conditions: read-out: The percentage of the remaining active protein
[14] = molecular target: Arg(m) (Mus musculus (Mouse), UniProt Q4JIM5); test: Kinase inhibition assay (KinaseProfiler, 33P-ATP); format: biochemical; conditions: read-out: The percentage of the remaining active protein
[15] = molecular target: PKCι(h) (Homo sapiens (Human), UniProt P41743); test: Kinase inhibition assay (KinaseProfiler, 33P-ATP); format: biochemical; conditions: read-out: The percentage of the remaining active protein
[16] = molecular target: NEK11(h) (Homo sapiens (Human), UniProt Q8NG66); test: Kinase inhibition assay (KinaseProfiler, 33P-ATP); format: biochemical; conditions: read-out: The percentage of the remaining active protein
[17] = molecular target: PASK(h) (Homo sapiens (Human), UniProt Q96RG2); test: Kinase inhibition assay (KinaseProfiler, 33P-ATP); format: biochemical; conditions: read-out: The percentage of the remaining active protein
Chain of PASK(h) (Q96RG2 whole entry): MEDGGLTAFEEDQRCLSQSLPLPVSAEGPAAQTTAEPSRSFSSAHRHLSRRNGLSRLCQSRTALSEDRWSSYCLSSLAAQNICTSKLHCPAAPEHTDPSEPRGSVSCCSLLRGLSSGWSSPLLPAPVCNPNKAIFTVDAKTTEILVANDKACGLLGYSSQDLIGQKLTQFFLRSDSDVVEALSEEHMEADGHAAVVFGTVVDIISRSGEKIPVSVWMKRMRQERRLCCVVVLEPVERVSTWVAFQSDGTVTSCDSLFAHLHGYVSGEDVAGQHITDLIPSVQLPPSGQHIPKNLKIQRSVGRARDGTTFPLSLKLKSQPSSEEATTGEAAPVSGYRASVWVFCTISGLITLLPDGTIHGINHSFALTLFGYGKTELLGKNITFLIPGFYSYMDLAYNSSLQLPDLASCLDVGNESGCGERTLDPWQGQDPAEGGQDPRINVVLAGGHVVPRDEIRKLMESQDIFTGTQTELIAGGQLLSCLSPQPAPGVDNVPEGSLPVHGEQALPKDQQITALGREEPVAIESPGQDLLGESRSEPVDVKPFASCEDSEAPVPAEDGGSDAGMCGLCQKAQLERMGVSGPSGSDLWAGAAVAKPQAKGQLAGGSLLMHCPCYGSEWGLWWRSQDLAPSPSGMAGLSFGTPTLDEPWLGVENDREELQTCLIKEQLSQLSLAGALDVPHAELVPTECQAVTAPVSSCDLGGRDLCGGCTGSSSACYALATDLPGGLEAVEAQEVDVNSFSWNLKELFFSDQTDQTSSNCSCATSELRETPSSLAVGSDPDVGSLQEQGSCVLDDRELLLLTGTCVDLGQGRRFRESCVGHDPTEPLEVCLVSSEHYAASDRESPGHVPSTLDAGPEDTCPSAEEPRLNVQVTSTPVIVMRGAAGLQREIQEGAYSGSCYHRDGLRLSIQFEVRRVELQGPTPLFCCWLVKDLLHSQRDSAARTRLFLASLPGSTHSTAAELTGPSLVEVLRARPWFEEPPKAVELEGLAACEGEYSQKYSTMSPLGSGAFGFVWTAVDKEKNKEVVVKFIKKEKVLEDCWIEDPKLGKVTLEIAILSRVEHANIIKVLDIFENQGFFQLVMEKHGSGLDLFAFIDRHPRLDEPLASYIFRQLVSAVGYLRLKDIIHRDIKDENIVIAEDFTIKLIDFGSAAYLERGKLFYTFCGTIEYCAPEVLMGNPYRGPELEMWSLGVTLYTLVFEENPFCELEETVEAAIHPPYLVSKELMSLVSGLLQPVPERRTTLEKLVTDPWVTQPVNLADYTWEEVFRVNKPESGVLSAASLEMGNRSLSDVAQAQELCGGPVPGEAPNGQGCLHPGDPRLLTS

[18] = molecular target: Aurora-A(h) (Homo sapiens (Human), UniProt O14965); test: Kinase inhibition assay (KinaseProfiler, 33P-ATP); format: biochemical; conditions: read-out: The percentage of the remaining active protein
[19] = molecular target: CDK2/cyclinE(h) (Homo sapiens (Human), UniProt P24941); test: Kinase inhibition assay (KinaseProfiler, 33P-ATP); format: biochemical; conditions: read-out: The percentage of the remaining active protein
[20] = molecular target: PKG1α(h) (Homo sapiens (Human), UniProt Q13976); test: Kinase inhibition assay (KinaseProfiler, 33P-ATP); format: biochemical; conditions: read-out: The percentage of the remaining active protein
[21] = molecular target: Plk1(h) (Homo sapiens (Human), UniProt P53350); test: Kinase inhibition assay (KinaseProfiler, 33P-ATP); format: biochemical; conditions: read-out: The percentage of the remaining active protein
[22] = molecular target: NLK(h) (Homo sapiens (Human), UniProt Q9UBE8); test: Kinase inhibition assay (KinaseProfiler, 33P-ATP); format: biochemical; conditions: read-out: The percentage of the remaining active protein
[23] = molecular target: cKit (D816H) (Homo sapiens (Human), UniProt P10721, D816H); test: Kinase inhibition assay (KinaseProfiler, 33P-ATP); format: biochemical; conditions: cKit(D816H)(h), read-out: The percentage of the remaining active protein
[24] = molecular target: CK2(h) (Homo sapiens (Human), UniProt P68400); test: Kinase inhibition assay (KinaseProfiler, 33P-ATP); format: biochemical; conditions: read-out: The percentage of the remaining active protein
[25] = molecular target: MAPK2(h) (Homo sapiens (Human), UniProt P28482); test: Kinase inhibition assay (KinaseProfiler, 33P-ATP); format: biochemical; conditions: read-out: The percentage of the remaining active protein
Chain of MAPK2(h) (P28482 whole entry): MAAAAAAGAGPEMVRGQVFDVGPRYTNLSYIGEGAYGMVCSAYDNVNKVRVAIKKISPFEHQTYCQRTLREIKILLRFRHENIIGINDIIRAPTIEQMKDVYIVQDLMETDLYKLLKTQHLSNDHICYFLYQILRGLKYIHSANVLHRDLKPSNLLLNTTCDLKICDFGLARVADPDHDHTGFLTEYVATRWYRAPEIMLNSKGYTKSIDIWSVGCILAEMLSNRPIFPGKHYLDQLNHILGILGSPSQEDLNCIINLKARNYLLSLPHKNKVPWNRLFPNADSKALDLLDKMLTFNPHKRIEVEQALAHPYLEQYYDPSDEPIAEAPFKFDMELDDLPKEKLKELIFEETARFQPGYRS

[26] = molecular target: IRR(h) (Homo sapiens (Human), UniProt P14616); test: Kinase inhibition assay (KinaseProfiler, 33P-ATP); format: biochemical; conditions: read-out: The percentage of the remaining active protein
[27] = tested on: SMMC7721; test: Cell proliferation inhibition assay (MTT); format: cell-based; conditions: Homo sapiens, SMMC-7721, 72 hours, read-out: Proliferation inhibitory activity IC50
Experimental: as §1

[28] = molecular target: LIMK1 (Homo sapiens (Human), UniProt P53667); test: biochemical; conditions: read-out: The percentage of the remaining active protein
Chain of LIMK1 (P53667 whole entry): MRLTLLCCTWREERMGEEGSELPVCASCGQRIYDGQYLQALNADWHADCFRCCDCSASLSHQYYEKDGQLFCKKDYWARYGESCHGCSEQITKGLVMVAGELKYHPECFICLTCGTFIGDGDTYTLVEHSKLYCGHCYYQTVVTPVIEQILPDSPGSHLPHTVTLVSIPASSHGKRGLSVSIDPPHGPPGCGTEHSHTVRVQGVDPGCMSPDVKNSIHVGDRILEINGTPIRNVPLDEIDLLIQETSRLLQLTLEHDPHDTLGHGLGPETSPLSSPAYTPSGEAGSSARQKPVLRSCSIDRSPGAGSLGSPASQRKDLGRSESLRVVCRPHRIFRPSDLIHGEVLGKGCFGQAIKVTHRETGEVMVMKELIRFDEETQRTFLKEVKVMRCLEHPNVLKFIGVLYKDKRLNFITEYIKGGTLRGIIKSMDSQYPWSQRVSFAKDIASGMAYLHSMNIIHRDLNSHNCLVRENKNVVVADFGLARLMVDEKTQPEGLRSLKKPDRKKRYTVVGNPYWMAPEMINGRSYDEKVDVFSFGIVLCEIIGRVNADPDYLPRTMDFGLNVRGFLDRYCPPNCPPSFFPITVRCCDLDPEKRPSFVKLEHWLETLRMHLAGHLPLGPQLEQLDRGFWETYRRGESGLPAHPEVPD

[29] = molecular target: PRK2(h) (Homo sapiens (Human), UniProt Q16513); test: Kinase inhibition assay (KinaseProfiler, 33P-ATP); format: biochemical; conditions: read-out: The percentage of the remaining active protein
[30] = tested on: PC-9; test: Cell proliferation inhibition assay (MTT); format: cell-based; conditions: Homo sapiens, 72 hours, read-out: Proliferation inhibitory activity IC50
Experimental: as §1

[31] = molecular target: TLK2(h) (Homo sapiens (Human), UniProt Q86UE8); test: Kinase inhibition assay (KinaseProfiler, 33P-ATP); format: biochemical; conditions: read-out: The percentage of the remaining active protein
[32] = molecular target: TLK1(h) (Homo sapiens (Human), UniProt Q9UKI8); test: Kinase inhibition assay (KinaseProfiler, 33P-ATP); format: biochemical; conditions: read-out: The percentage of the remaining active protein
Chain of TLK1(h) (Q9UKI8 whole entry): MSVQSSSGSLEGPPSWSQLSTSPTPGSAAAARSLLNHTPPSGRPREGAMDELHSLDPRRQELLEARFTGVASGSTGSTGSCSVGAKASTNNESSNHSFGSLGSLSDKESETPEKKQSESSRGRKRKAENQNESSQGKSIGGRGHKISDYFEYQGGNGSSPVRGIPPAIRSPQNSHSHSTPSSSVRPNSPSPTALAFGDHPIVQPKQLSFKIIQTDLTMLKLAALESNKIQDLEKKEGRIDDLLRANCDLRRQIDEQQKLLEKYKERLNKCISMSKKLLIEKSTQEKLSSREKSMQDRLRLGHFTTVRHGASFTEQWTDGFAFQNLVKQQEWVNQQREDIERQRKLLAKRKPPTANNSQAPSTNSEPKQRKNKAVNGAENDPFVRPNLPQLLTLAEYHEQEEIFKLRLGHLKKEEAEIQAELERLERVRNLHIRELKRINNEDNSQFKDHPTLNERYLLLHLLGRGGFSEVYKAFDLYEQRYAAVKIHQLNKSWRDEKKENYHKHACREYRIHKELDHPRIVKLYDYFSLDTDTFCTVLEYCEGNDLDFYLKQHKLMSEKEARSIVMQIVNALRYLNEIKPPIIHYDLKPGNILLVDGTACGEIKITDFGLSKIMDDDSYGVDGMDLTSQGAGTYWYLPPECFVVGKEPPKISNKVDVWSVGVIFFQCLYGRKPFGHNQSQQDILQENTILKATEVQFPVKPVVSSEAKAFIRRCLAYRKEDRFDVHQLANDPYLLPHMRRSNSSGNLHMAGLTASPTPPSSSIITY

[33] = molecular target: PIP4K2a(h) (Homo sapiens (Human), UniProt P48426); test: Kinase inhibition assay (KinaseProfiler, 33P-ATP); format: biochemical; conditions: read-out: The percentage of the remaining active protein
Chain of PIP4K2a(h) (P48426 whole entry): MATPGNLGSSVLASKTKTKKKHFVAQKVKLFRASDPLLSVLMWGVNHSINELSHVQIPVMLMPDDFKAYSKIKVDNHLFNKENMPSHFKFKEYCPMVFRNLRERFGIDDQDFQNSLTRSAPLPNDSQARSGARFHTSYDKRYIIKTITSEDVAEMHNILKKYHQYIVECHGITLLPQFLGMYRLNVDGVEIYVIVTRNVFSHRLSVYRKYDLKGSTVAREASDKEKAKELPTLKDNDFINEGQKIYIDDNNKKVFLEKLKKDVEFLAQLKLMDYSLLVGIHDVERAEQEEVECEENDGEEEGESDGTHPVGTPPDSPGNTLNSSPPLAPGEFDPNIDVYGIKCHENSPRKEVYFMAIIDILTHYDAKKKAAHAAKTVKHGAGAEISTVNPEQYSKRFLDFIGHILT

[34] = molecular target: PTK5 (Homo sapiens (Human), UniProt P42685); test: Kinase inhibition assay (KinaseProfiler, 33P-ATP); conditions: read-out: The percentage of the remaining active protein
[35] = molecular target: SGK(h) (Homo sapiens (Human), UniProt O00141); test: Kinase inhibition assay (KinaseProfiler, 33P-ATP); format: biochemical; conditions: read-out: The percentage of the remaining active protein
[36] = molecular target: SAPK3(h) (Homo sapiens (Human), UniProt P53778); test: Kinase inhibition assay (KinaseProfiler, 33P-ATP); format: biochemical; conditions: read-out: The percentage of the remaining active protein
Chain of SAPK3(h) (P53778 whole entry): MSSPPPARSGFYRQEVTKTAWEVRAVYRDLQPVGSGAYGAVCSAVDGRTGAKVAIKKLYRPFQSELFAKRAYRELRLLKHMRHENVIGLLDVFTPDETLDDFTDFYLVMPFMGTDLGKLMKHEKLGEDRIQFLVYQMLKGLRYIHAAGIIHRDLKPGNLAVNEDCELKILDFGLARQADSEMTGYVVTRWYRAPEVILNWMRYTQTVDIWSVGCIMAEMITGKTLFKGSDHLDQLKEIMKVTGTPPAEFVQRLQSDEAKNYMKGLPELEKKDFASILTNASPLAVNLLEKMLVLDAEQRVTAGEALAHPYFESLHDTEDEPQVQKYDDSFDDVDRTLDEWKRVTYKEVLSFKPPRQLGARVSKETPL

[37] = molecular target: PKCζ(h) (Homo sapiens (Human), UniProt Q05513); test: Kinase inhibition assay (KinaseProfiler, 33P-ATP); format: biochemical; conditions: read-out: The percentage of the remaining active protein

Compound: Cc1ccc(NC(=O)c2ccc(C)c(C(F)(F)F)c2)cc1C#Cc1nn([C@H]2CC[C@H](O)CC2)c2ncnc(N)c12 [Compound 93]
- remaining activity at 10 µM [1]: -1%
- remaining activity at 10 µM [2]: 94%
- remaining activity at 10 µM [3]: 131%
- IC50 [4]: ~10 µM
- remaining activity at 10 µM [5]: 40%
- remaining activity at 10 µM [6]: 100%
- remaining activity at 10 µM [7]: 100%
- remaining activity at 10 µM [8]: 34%
- remaining activity at 10 µM [9]: 63%
- remaining activity at 10 µM [10]: 101%
- remaining activity at 10 µM [11]: 98%
- remaining activity at 10 µM [12]: 99%
- remaining activity at 10 µM [13]: 112%
- remaining activity at 10 µM [14]: -1%
- remaining activity at 10 µM [15]: 91%
- remaining activity at 10 µM [16]: 50%
- remaining activity at 10 µM [17]: 113%
- remaining activity at 10 µM [18]: 64%
- remaining activity at 10 µM [19]: 102%
- remaining activity at 10 µM [20]: 118%
- remaining activity at 10 µM [21]: 92%
- remaining activity at 10 µM [22]: 82%
- remaining activity at 10 µM [23]: 1%
- remaining activity at 10 µM [24]: 105%
- remaining activity at 10 µM [25]: 108%
- remaining activity at 10 µM [26]: 107%
- IC50 [27]: > 10 µM
- remaining activity at 10 µM [28]: 5%
- remaining activity at 10 µM [29]: 97%
- IC50 [30]: 0.1 to 0.3 µM
- remaining activity at 10 µM [31]: 93%
- remaining activity at 10 µM [32]: 95%
- remaining activity at 10 µM [33]: 100%
- remaining activity at 10 µM [34]: 1%
- remaining activity at 10 µM [35]: 90%
- remaining activity at 10 µM [36]: 68%
- remaining activity at 10 µM [37]: 99%

From patent publication US10266537B2, “3-acetylenyl-pyrazole-pyrimidine derivative, and preparation method therefor and uses thereof” (Si Chuan University, priority 2015, dated 2019)
